The values that follow come from PMC11487561 (ACS Chemical Neuroscience, 2024).

Data set [1] is described as follows: Intrinsic clearance in human liver microsomes. The class given is in vitro ADME. The procedure:
Intrinsic Clearance in Rat and Human Liver Microsomes
The in vitro intrinsic clearance (CL int) was investigated in commercially obtained hepatic microsomes from rat and human donors using the substrate depletion (i.e., loss-of-parent vs. time, or t 1/2 method) approach with analyte detection via liquid chromatography-tandem mass spectrometry (LC-MS/MS). For each species, mean %parent remaining values at each time point were calculated from replicates raw data (analyte:IS peak area ratios) and used to determine in vitro t 1/2 and CLint.
Experiments were carried out using a robot-assisted (TECAN model Evo 200). Compound was incubated (1 µM final concentration) in buffer (100 mM potassium phosphate pH 7.4 with 3 mM MgCl2) containing hepatic microsomes (0.5 mg/mL final concentration) from multiple species, discretely, at 37 °C under constant orbital shaking. After 5 minutes (pre-incubation), reactions were initiated by addition of nicotinamide adenine dinucleotide phosphate (NADPH, 1 mM final concentration). At selected time intervals (0, 3, 7, 15, 25, and 45 minutes) post-addition of NADPH, aliquots (50 µL) were taken and placed into a 96-shallow-well plate containing ice cold acetonitrile (150 µL) with carbamazepine (IS, 50 nM). The plates were then centrifuged (3000 rcf at 4 °C) for 10 minutes. The supernatants were transferred to a new 96-shallow-well daughter plate and diluted (1:1 v/v) with water (Milli-Q filtered). The plates were then sealed in preparation for LC-MS/MS analysis (see below).
Raw LC-MS/MS peak area data generated from the assay samples were used to construct natural log-transformed %parent remaining vs. time plots (using t = 0 minute post-NADPH addition sample data as starting point set to 100%). In vitro compound half-life (t 1/2) values were obtained using the following […]
k is the slope from linear regression analysis of the natural log-transformed data (using means from Where all replicates at each time point). Resulting t 1/2 values were then used to calculate hepatic CLint values according to the following equation and with the use of species-specific scale-up factors for liver weight (grams) per total body weight (kg): […]
CLint = in vitro t1/2 x 0.5 mg microsomes x 1 gram liver x kg body wt aScale-up factors used are 45 (rat) and 20 (human).2
Predicted hepatic clearance (CLhep) was calculated using the following equation: […]
Qh represents hepatic blood flow (mL/min/kg): 21 for human, 70 for rat, and 90 for mouse.
Prepared samples were injected (10 µL each) onto an AB Sciex Triple Quad 4500 mass spectrometer system with an Agilent 1260 Infinity II pump and autosampler. Mass spectrometer conditions are described in Table S1. Quantitation of compounds was performed via AB Sciex Multiquant software using the raw analyte:IS peak area ratios. The typical detection range was 0.5 ng/mL to ≥ 5,000 ng/mL utilizing a quadratic equation regression with 1/x2 weighting. […]
Table S1. LC-MS/MS Conditions*
Mobile phase A 0.5% Formic Acid in Water
Mobile phase B 0.5% Formic Acid in Acetonitrile
Gradient Time % Mobile Phase B

The nature of data set [2]: Binding in plasma from rat (equilibrium dialysis). The class given is in vitro ADME. Conditions: fraction unbound, equilibrium dialysis, read-out: rat fu,plasma. The procedure:
Binding in plasma from rat and human.
Determination of compounds’ fraction unbound (f u) in plasma from rat and human was conducted in vitro via equilibrium dialysis using HTDialysis membrane plates. Dialysis membranes (four paired strips per HTD assay) were hydrated as described by the manufacturer and inserted into the HTD plate, which was assembled and prepared for sample addition by the dispensing of blank buffer (DPBS, 100 µL/well) into the ‘top half’ of each membrane-split well. Each compound was diluted into plasma from each species (5 µM final concentration), which was aliquoted in triplicate to the ‘bottom half’ of the prepared HTD plate wells. The HTD plate was sealed and incubated for 6 hours at 37 °C. Following incubation, each well (both top and bottom halves) were transferred (20 µL) to the corresponding wells of a 96-shallow-well (V-bottom) plate. The daughter plates were then matrix-matched (buffer side wells received equal volume of plasma, and plasma side wells received equal volume of buffer), and extraction solution (120 µL; acetonitrile containing 50 nM carbamazepine as IS) was added to all wells of both daughter plates to precipitate protein and extract test article. The plates were then sealed and centrifuged (3500 rcf) for 10 minutes at ambient temperature. Supernatant (60 µL) from each well of the daughter plates was then transferred to the corresponding wells of new daughter plates (96-shallow-well, V bottom) containing water (Milli-Q, 60 µL/well), and the plates were sealed in preparation for LC-MS/MS analysis (see below). fu was calculated as (analyte to IS MS peak area ratio from Trans-buffer side) / (analyte to IS MS peak area ratio from Cis-plasma side). Mean values for each species were calculated from 3 replicates.

A short description of data set [3]: Binding in brain homogenate from rat (equilibrium dialysis). Type of data set: in vitro ADME.
For a further data set, the target named is T1, CYP 2D6 (Homo sapiens, UniProt P10635).
T1 construct: from tissue; host or cells: pooled human liver microsomes (according to the earlier reading)
T1 sequence (P10635 whole entry): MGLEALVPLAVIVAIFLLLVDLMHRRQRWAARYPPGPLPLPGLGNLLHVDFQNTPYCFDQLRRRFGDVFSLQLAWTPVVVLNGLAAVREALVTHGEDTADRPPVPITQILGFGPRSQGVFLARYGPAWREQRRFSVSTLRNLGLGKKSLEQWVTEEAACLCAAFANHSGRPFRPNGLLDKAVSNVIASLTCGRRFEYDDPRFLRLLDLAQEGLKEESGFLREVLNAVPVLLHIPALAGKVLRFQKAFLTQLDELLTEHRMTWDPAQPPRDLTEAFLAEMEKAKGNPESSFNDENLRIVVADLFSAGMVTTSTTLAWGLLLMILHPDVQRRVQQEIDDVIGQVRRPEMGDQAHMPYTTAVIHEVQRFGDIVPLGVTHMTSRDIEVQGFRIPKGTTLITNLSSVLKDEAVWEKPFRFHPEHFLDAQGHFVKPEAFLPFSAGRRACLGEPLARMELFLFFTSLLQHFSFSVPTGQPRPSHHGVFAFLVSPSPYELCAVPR
The data set can be described thus: P450 inhibition in pooled human liver microsomes. Type of data set: in vitro ADME. Conditions: pooled HLM, NADPH, CYP-specific probe substrates.

The next data set relates to 4 strains ± S9. As to the kind of experiment: Mini Ames test. The class given is cell-based.
For the next data set, the target named is Neuropeptide Y Y1 (Homo sapiens, UniProt P25929). The data set can be described thus: Lead Profiling Screen – Eurofins Panlabs. The class given is binding. The settings on record: read-out: % inh at 10 μM.
Neuropeptide Y Y1, sequence (P25929 whole entry): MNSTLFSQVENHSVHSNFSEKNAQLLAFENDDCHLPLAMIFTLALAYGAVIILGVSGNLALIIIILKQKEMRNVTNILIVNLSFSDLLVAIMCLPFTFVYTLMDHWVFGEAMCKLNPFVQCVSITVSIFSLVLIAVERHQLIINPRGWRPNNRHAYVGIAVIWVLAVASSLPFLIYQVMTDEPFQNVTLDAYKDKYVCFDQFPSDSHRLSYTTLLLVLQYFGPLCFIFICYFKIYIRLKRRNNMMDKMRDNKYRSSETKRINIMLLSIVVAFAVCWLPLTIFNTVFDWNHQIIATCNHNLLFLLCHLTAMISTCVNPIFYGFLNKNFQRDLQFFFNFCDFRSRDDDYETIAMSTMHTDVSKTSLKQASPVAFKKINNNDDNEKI
Another data set addresses Opiate κ (OP2, KOP) (Homo sapiens, UniProt P41145). The data set can be described thus: Lead Profiling Screen – Eurofins Panlabs. Type of data set: binding. The settings on record: read-out: % inh at 10 μM.
Data set [4] deals with Platelet Activating Factor (PAF) (Homo sapiens, UniProt P25105). As to the kind of experiment: Lead Profiling Screen – Eurofins Panlabs. Type of data set: binding. Conditions: read-out: % inh at 10 μM.
Platelet Activating Factor (PAF), sequence (P25105 whole entry): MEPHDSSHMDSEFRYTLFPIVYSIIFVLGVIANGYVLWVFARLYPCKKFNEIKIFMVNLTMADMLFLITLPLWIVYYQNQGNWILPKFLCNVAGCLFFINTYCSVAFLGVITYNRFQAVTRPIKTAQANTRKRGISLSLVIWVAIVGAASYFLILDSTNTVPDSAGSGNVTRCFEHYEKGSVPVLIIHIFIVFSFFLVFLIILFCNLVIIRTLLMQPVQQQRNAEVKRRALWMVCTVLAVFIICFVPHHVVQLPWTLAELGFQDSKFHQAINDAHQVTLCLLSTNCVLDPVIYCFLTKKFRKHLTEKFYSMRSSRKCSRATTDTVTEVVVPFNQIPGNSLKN
Another data set concerns the target Potassium Channel [KATP] (Cricetus cricetus, UniProt Q09427). As to the kind of experiment: Lead Profiling Screen – Eurofins Panlabs. The class given is binding, hamster. Conditions: read-out: % inh at 10 μM.
The next data set has as its target hERG potassium channel (Homo sapiens, UniProt Q12809). The data set can be described thus: Lead Profiling Screen – Eurofins Panlabs. The class given is binding. The settings on record: read-out: % inh at 10 μM.
In another data set the target is Tachykinin NK1 (Homo sapiens, UniProt P25103). The data set can be described thus: Lead Profiling Screen – Eurofins Panlabs. The class given is binding. Conditions: read-out: % inh at 10 μM.
Tachykinin NK1, sequence (P25103 whole entry): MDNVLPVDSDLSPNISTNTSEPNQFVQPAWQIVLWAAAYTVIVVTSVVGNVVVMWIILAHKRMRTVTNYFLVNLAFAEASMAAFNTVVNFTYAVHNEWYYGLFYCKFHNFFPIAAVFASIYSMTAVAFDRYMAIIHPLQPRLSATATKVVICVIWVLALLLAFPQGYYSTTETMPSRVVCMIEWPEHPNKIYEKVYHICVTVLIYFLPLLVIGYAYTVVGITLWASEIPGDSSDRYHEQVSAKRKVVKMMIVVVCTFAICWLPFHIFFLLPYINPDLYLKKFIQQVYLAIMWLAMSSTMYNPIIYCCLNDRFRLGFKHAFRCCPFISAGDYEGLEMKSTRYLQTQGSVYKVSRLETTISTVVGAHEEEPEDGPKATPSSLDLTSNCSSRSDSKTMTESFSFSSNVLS
Data set [5] concerns the target Transporter, Serotonin (5-Hydroxytryptamine) (SERT) (Homo sapiens, UniProt P31645). As to the kind of experiment: Lead Profiling Screen – Eurofins Panlabs. The class given is binding. The settings on record: read-out: % inh at 10 μM.

pIC50: −log10 of the molar value.

Transporter, Serotonin (5-Hydroxytryptamine) (SERT), sequence (P31645 whole entry): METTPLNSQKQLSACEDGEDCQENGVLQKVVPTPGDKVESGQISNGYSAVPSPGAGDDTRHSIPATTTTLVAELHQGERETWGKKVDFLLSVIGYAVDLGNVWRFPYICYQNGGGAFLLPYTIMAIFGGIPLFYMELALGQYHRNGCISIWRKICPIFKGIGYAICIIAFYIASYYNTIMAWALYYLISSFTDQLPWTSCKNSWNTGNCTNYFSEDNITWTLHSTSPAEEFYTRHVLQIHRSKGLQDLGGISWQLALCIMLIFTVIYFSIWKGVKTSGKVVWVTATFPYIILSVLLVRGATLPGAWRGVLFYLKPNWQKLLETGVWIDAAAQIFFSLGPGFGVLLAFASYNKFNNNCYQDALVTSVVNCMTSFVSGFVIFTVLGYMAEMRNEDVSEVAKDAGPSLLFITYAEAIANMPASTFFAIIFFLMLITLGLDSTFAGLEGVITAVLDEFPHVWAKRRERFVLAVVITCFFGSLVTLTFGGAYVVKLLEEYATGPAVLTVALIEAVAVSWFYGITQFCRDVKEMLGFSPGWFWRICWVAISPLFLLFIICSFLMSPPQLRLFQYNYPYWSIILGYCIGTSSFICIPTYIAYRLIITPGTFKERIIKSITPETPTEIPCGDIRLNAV
hERG potassium channel, sequence (Q12809 whole entry): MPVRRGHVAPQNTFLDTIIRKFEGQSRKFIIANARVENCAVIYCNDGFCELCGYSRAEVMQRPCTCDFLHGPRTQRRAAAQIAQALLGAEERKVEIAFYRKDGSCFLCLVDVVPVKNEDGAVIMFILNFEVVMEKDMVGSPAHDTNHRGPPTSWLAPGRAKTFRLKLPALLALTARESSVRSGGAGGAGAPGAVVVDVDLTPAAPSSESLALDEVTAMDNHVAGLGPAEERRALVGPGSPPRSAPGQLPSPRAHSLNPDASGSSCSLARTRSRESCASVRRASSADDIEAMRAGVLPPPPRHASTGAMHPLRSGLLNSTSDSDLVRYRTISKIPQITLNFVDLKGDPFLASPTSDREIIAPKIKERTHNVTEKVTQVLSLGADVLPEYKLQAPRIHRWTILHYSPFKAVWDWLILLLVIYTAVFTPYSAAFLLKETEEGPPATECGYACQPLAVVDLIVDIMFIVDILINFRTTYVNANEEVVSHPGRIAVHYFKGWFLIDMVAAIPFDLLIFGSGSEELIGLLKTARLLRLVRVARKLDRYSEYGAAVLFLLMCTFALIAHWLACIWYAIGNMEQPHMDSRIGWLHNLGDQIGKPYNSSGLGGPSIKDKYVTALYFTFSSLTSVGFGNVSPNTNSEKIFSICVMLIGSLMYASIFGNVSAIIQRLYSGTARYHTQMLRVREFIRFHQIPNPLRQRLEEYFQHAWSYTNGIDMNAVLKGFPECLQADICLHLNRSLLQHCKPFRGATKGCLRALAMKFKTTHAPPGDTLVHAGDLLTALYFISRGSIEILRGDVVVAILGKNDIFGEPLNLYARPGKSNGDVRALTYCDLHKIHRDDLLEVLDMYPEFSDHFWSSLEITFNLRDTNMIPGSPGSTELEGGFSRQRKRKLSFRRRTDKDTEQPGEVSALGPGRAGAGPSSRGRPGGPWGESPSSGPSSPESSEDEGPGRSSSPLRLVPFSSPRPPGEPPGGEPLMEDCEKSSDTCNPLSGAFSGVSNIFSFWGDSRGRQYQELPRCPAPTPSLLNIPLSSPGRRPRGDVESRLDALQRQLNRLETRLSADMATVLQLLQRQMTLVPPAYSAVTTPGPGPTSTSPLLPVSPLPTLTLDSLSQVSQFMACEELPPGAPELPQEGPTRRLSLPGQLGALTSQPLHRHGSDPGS
Opiate κ (OP2, KOP), sequence (P41145 whole entry): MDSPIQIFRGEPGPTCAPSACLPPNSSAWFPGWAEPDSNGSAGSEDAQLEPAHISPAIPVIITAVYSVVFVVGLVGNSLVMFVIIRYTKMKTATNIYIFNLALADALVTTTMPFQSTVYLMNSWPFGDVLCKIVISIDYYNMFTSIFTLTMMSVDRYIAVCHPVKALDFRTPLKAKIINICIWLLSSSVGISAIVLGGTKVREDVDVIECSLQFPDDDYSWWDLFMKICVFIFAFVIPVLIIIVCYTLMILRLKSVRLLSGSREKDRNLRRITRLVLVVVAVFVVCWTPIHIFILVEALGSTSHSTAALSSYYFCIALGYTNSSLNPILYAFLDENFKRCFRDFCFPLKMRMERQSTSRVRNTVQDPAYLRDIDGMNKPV

On to `Cc1nc(C)c2c(n1)sc1c(NCc3ccc(C(C)(C)O)cc3)nccc12` [22g], for which the CLint scaled at 1 µM in [1] (pH 7.4, human liver microsomes) turned out to be 26 mL/min/kg. For the same compound, the “CLhep, human” value in data set [1] (predicted hepatic clearance from microsomal CLint) is recorded as 12 mL/min/kg. For the same compound, in data set [2], the fraction unbound at 6 h, 5 µM was found to be 0.024. Further, the rat fbrain in data set [3] (fraction unbound, equilibrium dialysis, rat brain homogenates) came out at 0.016. In addition, the fraction unbound at 6 h, 1 µM in [3] (rat, brain homogenate, in %, read-out: fu,brain (rat brain homogenate)) lay within 0.01 to 0.05. In addition, the pIC50 against CYP 2D6 is less than 4.52. The “Mini Ames test result” value in the data set on 4 strains ± S9 is “negative”. The inhibition at 10 µM at Neuropeptide Y Y1 was -1%; at Opiate κ (OP2, KOP), 4%; in [4], 7%; on Potassium Channel [KATP], 4%; at hERG potassium channel it was 16%; at Tachykinin NK1 it was 8%. Further, the inhibition at 10 µM in [5] was 1%.
